Test results published in US10405547B2, “Substituted cyclic amides as herbicides” (FMC Corporation, priority 2015, dated 2019).

Columns and labels:
Format in all cases: in vivo
[1] = test system: blackgrass (Alopecurus myosuroides); assay: Test A postemergence, blackgrass; conditions: 0 to 100 scale (0 no effect, 100 complete control)
Summary of the method: (§1)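 Visual injury scores (0 no effect to 100 complete control) taken about 10 days after treatment, relative to untreated plants. Treatments were directed soil spray at planting for preemergence, or foliar application to one- to two-leaf plants (2-10 cm) for postemergence, with surfactant-containing formulations in loam–sand pots.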

[2] = test system: ryegrass, Italian (Lolium multiflorum); assay: Test A preemergence, Italian ryegrass; conditions: 0 to 100 scale (0 no effect, 100 complete control)
Summary of the method: as §1

[3] = test system: galium (catchweed bedstraw, Galium aparine); assay: Test A postemergence, galium; conditions: 0 to 100 scale (0 no effect, 100 complete control)
Summary of the method: as §1

[4] = test system: wheat (Triticum aestivum); assay: Test A postemergence, wheat; conditions: 0 to 100 scale (0 no effect, 100 complete control)
Summary of the method: as §1

[5] = test system: foxtail, giant (Setaria faberii); assay: Test A postemergence, giant foxtail; conditions: 0 to 100 scale (0 no effect, 100 complete control)
Summary of the method: as §1

[6] = test system: pigweed (Amaranthus retroflexus); assay: Test A preemergence, pigweed; conditions: 0 to 100 scale (0 no effect, 100 complete control)
Summary of the method: as §1

[7] = test system: barnyardgrass (Echinochloa crus-galli); assay: Test A preemergence, barnyardgrass; conditions: 0 to 100 scale (0 no effect, 100 complete control)
Summary of the method: as §1

[8] = test system: pigweed (Amaranthus retroflexus); assay: Test A postemergence, pigweed; conditions: 0 to 100 scale (0 no effect, 100 complete control)
Summary of the method: as §1

kochia (Kochia scoparia) [9] = assay: Test A preemergence, kochia; conditions: 0 to 100 scale (0 no effect, 100 complete control)
Summary of the method: as §1

[10] = test system: ducksalad (Heteranthera limosa); assay: Test B flooded paddy test, ducksalad; conditions: applied to paddy water, visual rating after 13 to 15 days, scale 0 (no effect) to 100 (complete control)
Summary of the method: (§2)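 Pots were flooded to 3 cm above the soil surface at treatment, compound applied directly to the paddy water, and that depth held throughout. Plants were kept in a greenhouse for 13 to 15 days, then visually rated against untreated controls.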

[11] = test system: ryegrass, Italian (Lolium multiflorum); assay: Test A postemergence, Italian ryegrass; conditions: 0 to 100 scale (0 no effect, 100 complete control)
Summary of the method: as §1

kochia (Kochia scoparia) [12] = assay: Test A postemergence, kochia; conditions: 0 to 100 scale (0 no effect, 100 complete control)
Summary of the method: as §1

rice (Oryza sativa) = assay: Test B flooded paddy test, rice; conditions: applied to paddy water, visual rating after 13 to 15 days, scale 0 (no effect) to 100 (complete control)
Summary of the method: as §2

[13] = test system: barnyardgrass (Echinochloa crus-galli); assay: Test B flooded paddy test, barnyardgrass; conditions: applied to paddy water, visual rating after 13 to 15 days, scale 0 (no effect) to 100 (complete control)
Summary of the method: as §2

[14] = test system: foxtail, giant (Setaria faberii); assay: Test A preemergence, giant foxtail; conditions: 0 to 100 scale (0 no effect, 100 complete control)
Summary of the method: as §1

[15] = test system: ragweed (common ragweed, Ambrosia elatior); assay: Test A preemergence, ragweed; conditions: 0 to 100 scale (0 no effect, 100 complete control)
Summary of the method: as §1

[16] = test system: ragweed (common ragweed, Ambrosia elatior); assay: Test A postemergence, ragweed; conditions: 0 to 100 scale (0 no effect, 100 complete control)
Summary of the method: as §1

corn (Zea mays) = assay: Test A postemergence, corn; conditions: 0 to 100 scale (0 no effect, 100 complete control)
Summary of the method: as §1

[17] = test system: sedge, umbrella (small-flower umbrella sedge, Cyperus difformis); assay: Test B flooded paddy test, umbrella sedge; conditions: applied to paddy water, visual rating after 13 to 15 days, scale 0 (no effect) to 100 (complete control)
Summary of the method: as §2

[18] = test system: barnyardgrass (Echinochloa crus-galli); assay: Test A postemergence, barnyardgrass; conditions: 0 to 100 scale (0 no effect, 100 complete control)
Summary of the method: as §1

[19] = 125 g ai/ha, visual injury, approximately 10 days
[20] = 500 g ai/ha, visual injury, approximately 10 days

Compound	Plant response rating, Blackgrass [1, 19]	Plant response rating, Blackgrass [1, 20]	Plant response rating, Ryegrass, Italian ([2]; 125 g ai/ha)	Plant response rating, Ryegrass, Italian ([2]; 500 g ai/ha)	Plant response rating, Galium [3, 19]	Plant response rating, Galium [3, 20]	Plant response rating, Wheat [4, 19]	Plant response rating, Wheat [4, 20]	Plant response rating, Foxtail, Giant [5, 19]	Plant response rating, Pigweed ([6]; 125 g ai/ha)	Plant response rating, Barnyardgrass ([7]; 125 g ai/ha)	Plant response rating, Pigweed [8, 19]	Plant response rating, Kochia (kochia (Kochia scoparia) [9]; 125 g ai/ha)	Plant response rating, Ryegrass, Italian [11, 19]	Plant response rating, Kochia (kochia (Kochia scoparia) [12]; [19])	Plant response rating, Foxtail, Giant ([14]; 125 g ai/ha)	Plant response rating, Ragweed ([15]; 125 g ai/ha)	Plant response rating, Ragweed [16, 19]	Plant response rating, Corn (corn (Zea mays); [19])	Plant response rating, Barnyardgrass [18, 19]	other results
O=C1NCC(c2cccc(OCc3ccccc3)c2)C1C(=O)Nc1ccc(F)cc1F (centres unmarked) [Compound 64]	0	0	0	0	0	0	0	0	0	0	0	0	0	0	0	0	0	0	0	0	Plant response rating, Foxtail, Giant [5, 20]: 0; Plant response rating, Pigweed ([6]; 500 g ai/ha): 0; Plant response rating, Barnyardgrass ([7]; 500 g ai/ha): 0; Plant response rating, Pigweed [8, 20]: 0; Plant response rating, Kochia (kochia (Kochia scoparia) [9]; 500 g ai/ha): 0; Plant response rating, Ducksalad (Flood) ([10]; 500 g ai/ha): 35; Plant response rating, Ryegrass, Italian [11, 20]: 0; Plant response rating, Kochia (kochia (Kochia scoparia) [12]; [20]): 0; Plant response rating, Rice (Flood) (rice (Oryza sativa); 500 g ai/ha): 0; Plant response rating, Barnyardgrass (Flood) ([13]; 500 g ai/ha): 0; Plant response rating, Foxtail, Giant ([14]; 500 g ai/ha): 0; Plant response rating, Ragweed ([15]; 500 g ai/ha): 0; Plant response rating, Ragweed [16, 20]: 0; Plant response rating, Corn (corn (Zea mays); [20]): 0; Plant response rating, Sedge, Umbrella (Flood) ([17]; 500 g ai/ha): 0; Plant response rating, Barnyardgrass [18, 20]: 0
CN1C[C@H](c2cccc(Oc3ccc(F)cn3)c2)[C@@H](C(=O)Nc2ccc(F)c(F)c2F)C1=O [Compound 87, (3S,4S)-4-[3-[(5-fluoro-2-pyridinyl)oxy]phenyl]-1-methyl-2-oxo-N-(2,3,4-trifluorophenyl)-3-pyrrolidinecarboxamide]	60	–	80	–	60	–	40	–	80	70	90	70	60	70	30	90	0	0	90	80	Plant response rating, Blackgrass ([1]; 31 g ai/ha): 30; Plant response rating, Ryegrass, Italian ([2]; 31 g ai/ha): 0; Plant response rating, Galium ([3]; 31 g ai/ha): 30; Plant response rating, Wheat ([4]; 31 g ai/ha): 0; Plant response rating, Foxtail, Giant ([5]; 31 g ai/ha): 70; Plant response rating, Pigweed ([6]; 31 g ai/ha): 70; Plant response rating, Barnyardgrass ([7]; 31 g ai/ha): 60; Plant response rating, Pigweed ([8]; 31 g ai/ha): 0; Plant response rating, Kochia (kochia (Kochia scoparia) [9]; 31 g ai/ha): 0; Plant response rating, Ducksalad (Flood) ([10]; 250 g ai/ha): 85; Plant response rating, Ryegrass, Italian ([11]; 31 g ai/ha): 40; Plant response rating, Kochia (kochia (Kochia scoparia) [12]; 31 g ai/ha): 0; Plant response rating, Rice (Flood) (rice (Oryza sativa); 250 g ai/ha): 0; Plant response rating, Barnyardgrass (Flood) ([13]; 250 g ai/ha): 60; Plant response rating, Foxtail, Giant ([14]; 31 g ai/ha): 90; Plant response rating, Ragweed ([15]; 31 g ai/ha): 0; Plant response rating, Ragweed ([16]; 31 g ai/ha): 0; Plant response rating, Corn (corn (Zea mays); 31 g ai/ha): 60; Plant response rating, Sedge, Umbrella (Flood) ([17]; 250 g ai/ha): 0; Plant response rating, Barnyardgrass ([18]; 31 g ai/ha): 50
O=C1NCC(c2cccc(Oc3ccc(C(F)(F)F)cn3)c2)C1C(=O)Nc1cccc(F)c1F (single isomer, unassigned) [Compound 47]	0	20	0	70	60	70	0	30	60	0	50	60	0	0	0	90	0	0	20	70	Plant response rating, Foxtail, Giant [5, 20]: 80; Plant response rating, Pigweed ([6]; 500 g ai/ha): 50; Plant response rating, Barnyardgrass ([7]; 500 g ai/ha): 80; Plant response rating, Pigweed [8, 20]: 70; Plant response rating, Kochia (kochia (Kochia scoparia) [9]; 500 g ai/ha): 0; Plant response rating, Ducksalad (Flood) ([10]; 250 g ai/ha): 0; Plant response rating, Ryegrass, Italian [11, 20]: 30; Plant response rating, Kochia (kochia (Kochia scoparia) [12]; [20]): 60; Plant response rating, Rice (Flood) (rice (Oryza sativa); 250 g ai/ha): 0; Plant response rating, Barnyardgrass (Flood) ([13]; 250 g ai/ha): 0; Plant response rating, Foxtail, Giant ([14]; 500 g ai/ha): 90; Plant response rating, Ragweed ([15]; 500 g ai/ha): 60; Plant response rating, Ragweed [16, 20]: 0; Plant response rating, Corn (corn (Zea mays); [20]): 80; Plant response rating, Sedge, Umbrella (Flood) ([17]; 250 g ai/ha): 0; Plant response rating, Barnyardgrass [18, 20]: 90
O=C1NCC(c2cccc(OCC3OCCO3)c2)C1C(=O)Nc1ccccc1Cl (centres unmarked) [Compound 6]	0	20	0	0	0	0	0	20	0	60	20	0	0	0	0	70	0	0	0	0	Plant response rating, Foxtail, Giant [5, 20]: 70; Plant response rating, Pigweed ([6]; 500 g ai/ha): 50; Plant response rating, Barnyardgrass ([7]; 500 g ai/ha): 80; Plant response rating, Pigweed [8, 20]: 0; Plant response rating, Kochia (kochia (Kochia scoparia) [9]; 500 g ai/ha): 0; Plant response rating, Ducksalad (Flood) ([10]; 250 g ai/ha): 0; Plant response rating, Ryegrass, Italian [11, 20]: 0; Plant response rating, Kochia (kochia (Kochia scoparia) [12]; [20]): 0; Plant response rating, Rice (Flood) (rice (Oryza sativa); 250 g ai/ha): 0; Plant response rating, Barnyardgrass (Flood) ([13]; 250 g ai/ha): 0; Plant response rating, Foxtail, Giant ([14]; 500 g ai/ha): 90; Plant response rating, Ragweed ([15]; 500 g ai/ha): 20; Plant response rating, Ragweed [16, 20]: 0; Plant response rating, Corn (corn (Zea mays); [20]): 20; Plant response rating, Sedge, Umbrella (Flood) ([17]; 250 g ai/ha): 0; Plant response rating, Barnyardgrass [18, 20]: 70
CN1CC(c2cccc(Sc3ccccc3)c2)C(C(=O)Nc2cccc(F)c2F)C1=O (single isomer, unassigned) [Compound 51]	0	0	0	20	40	50	0	20	10	0	20	0	20	20	0	90	0	0	0	0	Plant response rating, Foxtail, Giant [5, 20]: 40; Plant response rating, Pigweed ([6]; 500 g ai/ha): 0; Plant response rating, Pigweed [8, 20]: 0; Plant response rating, Kochia (kochia (Kochia scoparia) [9]; 500 g ai/ha): 50; Plant response rating, Ducksalad (Flood) ([10]; 250 g ai/ha): 40; Plant response rating, Ryegrass, Italian [11, 20]: 30; Plant response rating, Kochia (kochia (Kochia scoparia) [12]; [20]): 30; Plant response rating, Rice (Flood) (rice (Oryza sativa); 250 g ai/ha): 0; Plant response rating, Barnyardgrass (Flood) ([13]; 250 g ai/ha): 0; Plant response rating, Foxtail, Giant ([14]; 500 g ai/ha): 90; Plant response rating, Ragweed ([15]; 500 g ai/ha): 0; Plant response rating, Ragweed [16, 20]: 20; Plant response rating, Corn (corn (Zea mays); [20]): 30; Plant response rating, Sedge, Umbrella (Flood) ([17]; 250 g ai/ha): 0; Plant response rating, Barnyardgrass [18, 20]: 30
